Consider three compounds from the kinase profiling compilation of Christmann-Franck et al. (2016).

Each structure is given as a SMILES string.

Chain of DAPK1 (human) (P53355 whole entry, looked up): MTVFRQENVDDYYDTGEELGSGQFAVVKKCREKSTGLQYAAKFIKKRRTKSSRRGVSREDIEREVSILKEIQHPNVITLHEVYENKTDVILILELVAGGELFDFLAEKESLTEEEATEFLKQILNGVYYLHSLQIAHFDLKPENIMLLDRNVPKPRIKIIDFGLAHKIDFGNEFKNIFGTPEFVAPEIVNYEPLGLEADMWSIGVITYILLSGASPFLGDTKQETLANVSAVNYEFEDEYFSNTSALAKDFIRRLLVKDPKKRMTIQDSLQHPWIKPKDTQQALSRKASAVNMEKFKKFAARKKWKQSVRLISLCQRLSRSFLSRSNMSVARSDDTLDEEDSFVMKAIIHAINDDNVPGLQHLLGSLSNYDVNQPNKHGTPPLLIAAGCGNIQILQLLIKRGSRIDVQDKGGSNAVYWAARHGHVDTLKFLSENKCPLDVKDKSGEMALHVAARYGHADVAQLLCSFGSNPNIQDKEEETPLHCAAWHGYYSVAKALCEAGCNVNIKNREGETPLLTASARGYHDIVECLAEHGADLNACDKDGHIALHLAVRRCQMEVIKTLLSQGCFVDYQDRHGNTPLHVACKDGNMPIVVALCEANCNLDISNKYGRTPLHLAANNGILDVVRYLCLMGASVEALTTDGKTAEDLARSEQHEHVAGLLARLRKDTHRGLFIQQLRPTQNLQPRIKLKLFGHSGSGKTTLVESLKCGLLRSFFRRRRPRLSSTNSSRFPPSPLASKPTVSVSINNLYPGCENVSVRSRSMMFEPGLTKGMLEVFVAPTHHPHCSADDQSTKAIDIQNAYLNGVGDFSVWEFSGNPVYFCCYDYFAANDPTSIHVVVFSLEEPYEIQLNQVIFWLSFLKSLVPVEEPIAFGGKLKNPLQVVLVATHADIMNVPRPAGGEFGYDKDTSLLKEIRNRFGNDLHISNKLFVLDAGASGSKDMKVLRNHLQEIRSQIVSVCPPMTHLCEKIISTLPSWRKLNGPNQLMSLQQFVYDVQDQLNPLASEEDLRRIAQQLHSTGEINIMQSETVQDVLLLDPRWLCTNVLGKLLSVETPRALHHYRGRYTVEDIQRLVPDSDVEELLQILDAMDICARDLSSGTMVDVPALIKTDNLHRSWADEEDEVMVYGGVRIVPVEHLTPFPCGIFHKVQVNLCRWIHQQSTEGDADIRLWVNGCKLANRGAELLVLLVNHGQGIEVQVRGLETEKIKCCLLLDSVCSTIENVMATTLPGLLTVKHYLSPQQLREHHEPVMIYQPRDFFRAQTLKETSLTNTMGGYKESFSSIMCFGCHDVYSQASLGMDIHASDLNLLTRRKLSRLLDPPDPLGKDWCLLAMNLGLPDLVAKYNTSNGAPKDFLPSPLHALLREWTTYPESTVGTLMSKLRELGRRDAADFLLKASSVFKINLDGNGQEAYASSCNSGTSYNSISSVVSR
Chain of ROCK2 (human) (O75116 whole entry, looked up): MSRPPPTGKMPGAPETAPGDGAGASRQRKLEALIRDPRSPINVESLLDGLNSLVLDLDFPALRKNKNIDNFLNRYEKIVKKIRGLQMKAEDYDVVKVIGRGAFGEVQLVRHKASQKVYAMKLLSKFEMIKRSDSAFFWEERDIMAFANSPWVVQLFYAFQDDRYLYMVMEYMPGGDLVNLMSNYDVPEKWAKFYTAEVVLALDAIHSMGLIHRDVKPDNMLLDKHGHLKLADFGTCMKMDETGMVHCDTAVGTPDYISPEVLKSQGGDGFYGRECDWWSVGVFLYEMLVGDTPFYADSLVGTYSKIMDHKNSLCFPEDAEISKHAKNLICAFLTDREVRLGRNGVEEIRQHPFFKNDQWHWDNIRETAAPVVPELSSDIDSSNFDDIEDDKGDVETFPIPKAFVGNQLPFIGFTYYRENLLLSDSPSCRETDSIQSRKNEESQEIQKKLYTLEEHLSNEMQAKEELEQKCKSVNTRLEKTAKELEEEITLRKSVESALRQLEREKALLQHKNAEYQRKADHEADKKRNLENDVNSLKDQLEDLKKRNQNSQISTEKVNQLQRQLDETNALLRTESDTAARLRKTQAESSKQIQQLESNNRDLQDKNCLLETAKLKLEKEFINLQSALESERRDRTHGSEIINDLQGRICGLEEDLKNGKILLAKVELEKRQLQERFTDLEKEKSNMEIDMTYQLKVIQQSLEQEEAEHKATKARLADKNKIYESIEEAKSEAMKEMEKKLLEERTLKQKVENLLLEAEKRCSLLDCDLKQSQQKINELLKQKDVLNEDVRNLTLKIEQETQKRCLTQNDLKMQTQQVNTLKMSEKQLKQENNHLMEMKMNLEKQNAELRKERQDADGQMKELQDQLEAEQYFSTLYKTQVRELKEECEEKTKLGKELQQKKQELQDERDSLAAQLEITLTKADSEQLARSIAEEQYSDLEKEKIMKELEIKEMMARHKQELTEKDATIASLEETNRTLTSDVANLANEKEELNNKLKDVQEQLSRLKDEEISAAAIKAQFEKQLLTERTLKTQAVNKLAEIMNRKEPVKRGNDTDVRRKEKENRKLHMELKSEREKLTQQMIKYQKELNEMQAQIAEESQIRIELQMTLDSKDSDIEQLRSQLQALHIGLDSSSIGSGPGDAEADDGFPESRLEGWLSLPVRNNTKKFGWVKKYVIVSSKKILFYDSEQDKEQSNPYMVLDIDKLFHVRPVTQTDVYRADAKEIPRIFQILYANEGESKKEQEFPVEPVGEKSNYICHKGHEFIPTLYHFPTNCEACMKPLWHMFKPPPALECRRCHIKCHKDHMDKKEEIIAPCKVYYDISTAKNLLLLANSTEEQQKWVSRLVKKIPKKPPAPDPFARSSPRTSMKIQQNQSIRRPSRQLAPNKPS
Chain of CSNK2A2 (human) (P19784 whole entry, looked up): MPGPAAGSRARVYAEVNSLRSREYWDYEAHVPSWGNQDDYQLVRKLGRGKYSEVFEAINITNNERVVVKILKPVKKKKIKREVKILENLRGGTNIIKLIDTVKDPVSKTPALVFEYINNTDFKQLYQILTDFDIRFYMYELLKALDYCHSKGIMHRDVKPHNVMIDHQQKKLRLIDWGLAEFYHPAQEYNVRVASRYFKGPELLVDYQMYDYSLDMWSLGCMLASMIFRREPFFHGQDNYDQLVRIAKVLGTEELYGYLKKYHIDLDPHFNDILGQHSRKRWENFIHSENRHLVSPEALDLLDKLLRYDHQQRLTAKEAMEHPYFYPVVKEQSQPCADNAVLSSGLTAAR

One experiment addresses DSTYK (human) (UniProt Q6XUX3). Nature of the experiment: radiometric filter-binding kinase assay, Kinase HotSpot. The note with it: compound 0.5 µM; ATP 10 µM.
With `COc1cc2ncnc(N3CCN(C(=O)Nc4ccc(Oc5ccccc5)cc4)CC3)c2cc1OC`, the residual activity (commonly the signal under treatment as a percentage of the control signal) worked out at 113%.

On to `Oc1ccc(Nc2nc(-c3ccc(Cl)cc3)cs2)cc1`, for which the residual activity amounted to 104%.

With `O=C1Nc2ccccc2/C1=C1/Nc2ccccc2/C1=N\OCCC(O)CO` (stereo not drawn), the residual activity stood at 104%.

The next experiment concerns the target CSNK2A2 (human) (UniProt P19784). The description is as above. The note with it: compound 0.5 µM; ATP 10 µM.
As for `COc1cc2ncnc(N3CCN(C(=O)Nc4ccc(Oc5ccccc5)cc4)CC3)c2cc1OC`, the residual activity turned out to be 61.9%.

In the case of `Oc1ccc(Nc2nc(-c3ccc(Cl)cc3)cs2)cc1`, the residual activity is 96.9%.

`O=C1Nc2ccccc2/C1=C1/Nc2ccccc2/C1=N\OCCC(O)CO` (stereo not drawn): the residual activity was found to be 28.3%.

A further experiment has as its target DAPK1 (human) (UniProt P53355). The experiment is described as above. The conditions noted are these: compound 0.5 µM; ATP 10 µM.
For `COc1cc2ncnc(N3CCN(C(=O)Nc4ccc(Oc5ccccc5)cc4)CC3)c2cc1OC`, the residual activity came out at 97.5%.

For the compound `Oc1ccc(Nc2nc(-c3ccc(Cl)cc3)cs2)cc1`, the residual activity was found to be 101%.

On to `O=C1Nc2ccccc2/C1=C1/Nc2ccccc2/C1=N\OCCC(O)CO` (stereo not drawn), for which the residual activity stood at 80.9%.

A further experiment deals with RPS6KA4 KD2 (human) (UniProt O75676). The description is as above. The conditions noted are these: compound 0.5 µM; ATP 10 µM.
Chain of RPS6KA4 KD2 (human) (O75676 whole entry, looked up): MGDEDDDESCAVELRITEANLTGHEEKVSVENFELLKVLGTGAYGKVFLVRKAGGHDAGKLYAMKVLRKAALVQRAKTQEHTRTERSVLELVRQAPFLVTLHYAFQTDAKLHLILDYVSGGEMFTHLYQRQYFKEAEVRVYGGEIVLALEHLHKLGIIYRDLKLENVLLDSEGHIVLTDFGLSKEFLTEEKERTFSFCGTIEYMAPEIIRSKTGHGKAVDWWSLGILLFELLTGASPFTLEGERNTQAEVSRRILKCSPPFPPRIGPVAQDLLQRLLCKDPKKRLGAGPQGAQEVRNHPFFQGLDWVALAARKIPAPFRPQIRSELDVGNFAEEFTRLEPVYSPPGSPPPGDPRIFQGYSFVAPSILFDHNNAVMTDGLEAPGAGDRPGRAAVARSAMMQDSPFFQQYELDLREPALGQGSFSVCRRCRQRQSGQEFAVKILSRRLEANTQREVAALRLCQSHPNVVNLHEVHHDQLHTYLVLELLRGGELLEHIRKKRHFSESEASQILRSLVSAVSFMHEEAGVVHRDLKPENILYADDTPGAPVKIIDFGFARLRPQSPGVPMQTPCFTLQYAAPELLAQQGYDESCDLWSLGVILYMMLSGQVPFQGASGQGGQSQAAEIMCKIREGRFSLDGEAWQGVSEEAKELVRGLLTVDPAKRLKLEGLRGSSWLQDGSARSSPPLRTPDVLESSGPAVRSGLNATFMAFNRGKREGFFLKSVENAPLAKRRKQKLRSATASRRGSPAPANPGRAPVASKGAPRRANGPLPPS
For the compound `COc1cc2ncnc(N3CCN(C(=O)Nc4ccc(Oc5ccccc5)cc4)CC3)c2cc1OC`, the residual activity worked out at 96.2%.

`Oc1ccc(Nc2nc(-c3ccc(Cl)cc3)cs2)cc1`: the residual activity is 91.5%.

As for `O=C1Nc2ccccc2/C1=C1/Nc2ccccc2/C1=N\OCCC(O)CO` (stereo not drawn), the residual activity worked out at 21.7%.

In a further experiment the target is PRKD3 (human) (UniProt O94806). The experiment is described as above. The conditions noted are these: compound 0.5 µM; ATP 10 µM.
As to `COc1cc2ncnc(N3CCN(C(=O)Nc4ccc(Oc5ccccc5)cc4)CC3)c2cc1OC`, the residual activity was 97.5%.

In the case of `Oc1ccc(Nc2nc(-c3ccc(Cl)cc3)cs2)cc1`, the residual activity was found to be 97.7%.

`O=C1Nc2ccccc2/C1=C1/Nc2ccccc2/C1=N\OCCC(O)CO` (stereo not drawn): the residual activity was 68.1%.

In another experiment the target is CSNK2A1 (human) (UniProt P68400). The description is as above. The note with it: compound 0.5 µM; ATP 10 µM.
Turning to `COc1cc2ncnc(N3CCN(C(=O)Nc4ccc(Oc5ccccc5)cc4)CC3)c2cc1OC`, the residual activity was 96.2%.

For the compound `Oc1ccc(Nc2nc(-c3ccc(Cl)cc3)cs2)cc1`, the residual activity came out at 101%.

For the compound `O=C1Nc2ccccc2/C1=C1/Nc2ccccc2/C1=N\OCCC(O)CO` (stereo not drawn), the residual activity worked out at 57.6%.

In the next experiment the target is FGFR1 (human) (UniProt P11362). Described as above. The note with it: compound 0.5 µM; ATP 10 µM.
On to `COc1cc2ncnc(N3CCN(C(=O)Nc4ccc(Oc5ccccc5)cc4)CC3)c2cc1OC`, for which the residual activity came to 89.6%.

With `Oc1ccc(Nc2nc(-c3ccc(Cl)cc3)cs2)cc1`, the residual activity amounted to 82.5%.

On to `O=C1Nc2ccccc2/C1=C1/Nc2ccccc2/C1=N\OCCC(O)CO` (stereo not drawn), for which the residual activity was found to be 27.9%.

The next experiment deals with MAP3K7 TAB1 (human) (UniProt O43318+Q15750). The experiment is described as above. The note with it: compound 0.5 µM; ATP 10 µM.
As to `COc1cc2ncnc(N3CCN(C(=O)Nc4ccc(Oc5ccccc5)cc4)CC3)c2cc1OC`, the residual activity stood at 98.3%.

`Oc1ccc(Nc2nc(-c3ccc(Cl)cc3)cs2)cc1`: the residual activity came to 95.3%.

`O=C1Nc2ccccc2/C1=C1/Nc2ccccc2/C1=N\OCCC(O)CO` (stereo not drawn): the residual activity is 50.5%.

A further experiment addresses MAP4K5 (human) (UniProt Q9Y4K4). Described as above. The note with it: compound 0.5 µM; ATP 10 µM.
Regarding `COc1cc2ncnc(N3CCN(C(=O)Nc4ccc(Oc5ccccc5)cc4)CC3)c2cc1OC`, the residual activity was 81.6%.

`Oc1ccc(Nc2nc(-c3ccc(Cl)cc3)cs2)cc1`: the residual activity was 110%.

As for `O=C1Nc2ccccc2/C1=C1/Nc2ccccc2/C1=N\OCCC(O)CO` (stereo not drawn), the residual activity worked out at 15.5%.

Another experiment addresses GRK6 (human) (UniProt P43250). The experiment is described as above. The note with it: compound 0.5 µM; ATP 10 µM.
In the case of `COc1cc2ncnc(N3CCN(C(=O)Nc4ccc(Oc5ccccc5)cc4)CC3)c2cc1OC`, the residual activity came to 96.4%.

Consider `Oc1ccc(Nc2nc(-c3ccc(Cl)cc3)cs2)cc1`, for which the residual activity turned out to be 100%.

For `O=C1Nc2ccccc2/C1=C1/Nc2ccccc2/C1=N\OCCC(O)CO` (stereo not drawn), the residual activity turned out to be 53.1%.

The next experiment concerns the target ROCK2 (human) (UniProt O75116). The description is as above. The conditions noted are these: compound 0.5 µM; ATP 10 µM.
On to `COc1cc2ncnc(N3CCN(C(=O)Nc4ccc(Oc5ccccc5)cc4)CC3)c2cc1OC`, for which the residual activity was 125%.

Turning to `Oc1ccc(Nc2nc(-c3ccc(Cl)cc3)cs2)cc1`, the residual activity is 99.4%.

Regarding `O=C1Nc2ccccc2/C1=C1/Nc2ccccc2/C1=N\OCCC(O)CO` (stereo not drawn), the residual activity turned out to be 91%.

The next experiment has as its target ABL1 (human) (UniProt P00519). The description is as above. The note with it: compound 0.5 µM; ATP 10 µM.
On to `COc1cc2ncnc(N3CCN(C(=O)Nc4ccc(Oc5ccccc5)cc4)CC3)c2cc1OC`, for which the residual activity is 97.4%.

Regarding `Oc1ccc(Nc2nc(-c3ccc(Cl)cc3)cs2)cc1`, the residual activity worked out at 99.7%.

As to `O=C1Nc2ccccc2/C1=C1/Nc2ccccc2/C1=N\OCCC(O)CO` (stereo not drawn), the residual activity came out at 71.9%.

For the next experiment, the target named is LTK (human) (UniProt P29376). The experiment is described as above. The conditions noted are these: compound 0.5 µM; ATP 10 µM.
Turning to `COc1cc2ncnc(N3CCN(C(=O)Nc4ccc(Oc5ccccc5)cc4)CC3)c2cc1OC`, the residual activity worked out at 89.8%.

With `Oc1ccc(Nc2nc(-c3ccc(Cl)cc3)cs2)cc1`, the residual activity came to 104%.

For the compound `O=C1Nc2ccccc2/C1=C1/Nc2ccccc2/C1=N\OCCC(O)CO` (stereo not drawn), the residual activity was found to be 34.7%.

In the next experiment the target is MYLK (human) (UniProt Q15746). Described as above. The conditions noted are these: compound 0.5 µM; ATP 10 µM.
`COc1cc2ncnc(N3CCN(C(=O)Nc4ccc(Oc5ccccc5)cc4)CC3)c2cc1OC`: the residual activity was found to be 101%.

In the case of `Oc1ccc(Nc2nc(-c3ccc(Cl)cc3)cs2)cc1`, the residual activity was found to be 104%.

Take `O=C1Nc2ccccc2/C1=C1/Nc2ccccc2/C1=N\OCCC(O)CO` (stereo not drawn): the residual activity stood at 32.3%.

The target in the next experiment is STK24 (human) (UniProt Q9Y6E0). The experiment is described as above. The note with it: compound 0.5 µM; ATP 10 µM.
Chain of STK24 (human) (Q9Y6E0 whole entry, looked up): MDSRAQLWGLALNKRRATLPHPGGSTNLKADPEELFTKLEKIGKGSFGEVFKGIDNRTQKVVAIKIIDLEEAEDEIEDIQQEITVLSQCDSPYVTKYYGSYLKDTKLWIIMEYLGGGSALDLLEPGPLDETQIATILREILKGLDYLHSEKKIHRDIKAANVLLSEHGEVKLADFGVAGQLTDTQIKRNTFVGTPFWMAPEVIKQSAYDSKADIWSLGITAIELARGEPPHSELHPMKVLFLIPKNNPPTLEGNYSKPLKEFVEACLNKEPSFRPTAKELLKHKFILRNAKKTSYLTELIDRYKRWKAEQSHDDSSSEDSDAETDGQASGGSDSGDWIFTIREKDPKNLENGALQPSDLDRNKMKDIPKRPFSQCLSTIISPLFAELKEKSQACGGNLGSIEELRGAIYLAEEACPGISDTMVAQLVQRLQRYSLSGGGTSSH
In the case of `COc1cc2ncnc(N3CCN(C(=O)Nc4ccc(Oc5ccccc5)cc4)CC3)c2cc1OC`, the residual activity came to 99.6%.

For `Oc1ccc(Nc2nc(-c3ccc(Cl)cc3)cs2)cc1`, the residual activity was determined as 94.1%.

Take `O=C1Nc2ccccc2/C1=C1/Nc2ccccc2/C1=N\OCCC(O)CO` (stereo not drawn): the residual activity amounted to 51.9%.

The next experiment deals with CDK4 CCND3 (human) (UniProt P30281+P11802). The description is as above. The note with it: compound 0.5 µM; ATP 10 µM.
Chain of CDK4 CCND3 (human) (P11802 whole entry, looked up): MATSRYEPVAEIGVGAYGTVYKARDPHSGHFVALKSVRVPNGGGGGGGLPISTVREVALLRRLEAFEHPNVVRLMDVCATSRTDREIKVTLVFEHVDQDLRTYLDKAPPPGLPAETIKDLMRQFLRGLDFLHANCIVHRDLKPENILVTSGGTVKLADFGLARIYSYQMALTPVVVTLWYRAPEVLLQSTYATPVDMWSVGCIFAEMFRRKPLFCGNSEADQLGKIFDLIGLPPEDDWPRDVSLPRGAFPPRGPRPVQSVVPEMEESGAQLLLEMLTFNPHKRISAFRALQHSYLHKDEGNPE
Chain of CDK4 CCND3 (human) (P30281 whole entry, looked up): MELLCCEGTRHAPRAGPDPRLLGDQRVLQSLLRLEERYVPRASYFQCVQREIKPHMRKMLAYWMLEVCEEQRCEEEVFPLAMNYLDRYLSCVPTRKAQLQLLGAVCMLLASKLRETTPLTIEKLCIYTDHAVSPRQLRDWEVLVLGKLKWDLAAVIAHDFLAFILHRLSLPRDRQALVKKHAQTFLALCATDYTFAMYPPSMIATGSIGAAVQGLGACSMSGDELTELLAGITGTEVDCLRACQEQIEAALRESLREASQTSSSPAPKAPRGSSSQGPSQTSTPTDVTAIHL
With `COc1cc2ncnc(N3CCN(C(=O)Nc4ccc(Oc5ccccc5)cc4)CC3)c2cc1OC`, the residual activity worked out at 90.3%.

For `Oc1ccc(Nc2nc(-c3ccc(Cl)cc3)cs2)cc1`, the residual activity stood at 108%.

As to `O=C1Nc2ccccc2/C1=C1/Nc2ccccc2/C1=N\OCCC(O)CO` (stereo not drawn), the residual activity was 66.1%.

A further experiment has as its target AURKC (human) (UniProt Q9UQB9). Described as above. The note with it: compound 0.5 µM; ATP 10 µM.
Take `COc1cc2ncnc(N3CCN(C(=O)Nc4ccc(Oc5ccccc5)cc4)CC3)c2cc1OC`: the residual activity stood at 90.3%.

With `Oc1ccc(Nc2nc(-c3ccc(Cl)cc3)cs2)cc1`, the residual activity was determined as 97%.

`O=C1Nc2ccccc2/C1=C1/Nc2ccccc2/C1=N\OCCC(O)CO` (stereo not drawn): the residual activity was 43.2%.

A further experiment addresses PKN1 (human) (UniProt Q16512). Described as above. The conditions noted are these: compound 0.5 µM; ATP 10 µM.
As for `COc1cc2ncnc(N3CCN(C(=O)Nc4ccc(Oc5ccccc5)cc4)CC3)c2cc1OC`, the residual activity was 103%.

In the case of `Oc1ccc(Nc2nc(-c3ccc(Cl)cc3)cs2)cc1`, the residual activity was 99.5%.

For `O=C1Nc2ccccc2/C1=C1/Nc2ccccc2/C1=N\OCCC(O)CO` (stereo not drawn), the residual activity came to 49.9%.

In a further experiment the target is STK11 (human) (UniProt Q15831). The experiment is described as above. The note with it: compound 0.5 µM; ATP 10 µM.
As for `COc1cc2ncnc(N3CCN(C(=O)Nc4ccc(Oc5ccccc5)cc4)CC3)c2cc1OC`, the residual activity was determined as 105%.

For the compound `Oc1ccc(Nc2nc(-c3ccc(Cl)cc3)cs2)cc1`, the residual activity is 91.1%.

Consider `O=C1Nc2ccccc2/C1=C1/Nc2ccccc2/C1=N\OCCC(O)CO` (stereo not drawn), for which the residual activity was 5.77%.

The next experiment addresses TGFBR1 (human) (UniProt P36897). Described as above. The note with it: compound 0.5 µM; ATP 10 µM.
`COc1cc2ncnc(N3CCN(C(=O)Nc4ccc(Oc5ccccc5)cc4)CC3)c2cc1OC`: the residual activity stood at 99.5%.

In the case of `Oc1ccc(Nc2nc(-c3ccc(Cl)cc3)cs2)cc1`, the residual activity was 99.9%.

With `O=C1Nc2ccccc2/C1=C1/Nc2ccccc2/C1=N\OCCC(O)CO` (stereo not drawn), the residual activity was found to be 102%.

Another experiment deals with KIT (human) (UniProt P10721). The description is as above. The conditions noted are these: compound 0.5 µM; ATP 10 µM.
Take `COc1cc2ncnc(N3CCN(C(=O)Nc4ccc(Oc5ccccc5)cc4)CC3)c2cc1OC`: the residual activity is 48.2%.

Turning to `Oc1ccc(Nc2nc(-c3ccc(Cl)cc3)cs2)cc1`, the residual activity amounted to 92%.

As for `O=C1Nc2ccccc2/C1=C1/Nc2ccccc2/C1=N\OCCC(O)CO` (stereo not drawn), the residual activity turned out to be 44.8%.
